From patent publication US7329422B2, “Pharmaceutical compositions” (priority 2002, dated 2008)

Experiments:
[1] = system: human breast cancer cells; experiment: purified B-2 compound on human breast cancer cells grown in tissue culture; assay type: cell-based
Text: (§1) Test were made of the purified B-2 compound on human breast cancer cells grown in tissue culture.

human liver cancer cells = experiment: purified B-2 compound on human liver cancer cells in tissue culture; assay type: cell-based; settings: visually evident
Text: as §1
The experiment was repeated using human liver cancer cells.

## Oc1cc(O)c2c(c1)O[C@H](c1ccc(O)c(O)c1)[C@H](O)[C@H]2c1c(O)cc(O)c2c1O[C@H](c1ccc(O)c(O)c1)[C@H](O)C2 [purified B-2 compound, procyanidin B-2]
[1]
  number of cells in treated samples: marked reduction
Human liver cancer cells
  number of cancer cells: substantially reduced
